Data taken from ChEMBL document CHEMBL1201862, “PubChem BioAssay data set” (2004).
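Tested at 5 concentrations; 48 h exposure; 96-well plates; endpoints linearly interpolated, else capped at highest concentration. GI50: concentration for 50% inhibition of growth.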 The source made the active and inactive calls. No stated cut-off is given here; in the data, active = GI50 up to about 1.1 µM and inactive = higher.

Legend:
Experiment in all cases: NCI anticancer screen, dose series, 48 h
[1] = system: A498
[2] = system: A549
[3] = system: CAKI-1
[4] = system: HL-60
[5] = system: HOP-92
[6] = system: K562
[7] = system: M14
[8] = system: Malme-3M
[9] = system: NCI-H226
[10] = system: NCI-H460
[11] = system: OVCAR-3
[12] = system: RPMI-8226
[13] = system: RXF 393
[14] = system: SF-268
[15] = system: SK-MEL-28
[16] = system: SK-OV-3
[17] = system: SW-620
[18] = system: TK-10
[19] = system: UACC-257
[20] = system: HCT-15

Row | Structure (SMILES) | GI50 [1] | GI50 [2] | GI50 [3] | GI50 [4] | GI50 [5] | GI50 [6] | GI50 [7] | GI50 [8] | GI50 [9] | GI50 [10] | GI50 [11] | GI50 [12] | GI50 [13] | GI50 [14] | GI50 [15] | GI50 [16] | GI50 [17] | GI50 [18] | GI50 [19] | GI50 [20] [µM]
1 | O=C(OCCO)C1CC2CC1C1(C2)OCCO1 (stereo unspecified) | > 100 µM (inactive) | > 100 µM (inactive) | > 100 µM (inactive) | > 100 µM (inactive) | > 100 µM (inactive) | > 100 µM (inactive) | > 100 µM (inactive) | > 100 µM (inactive) | > 100 µM (inactive) | > 100 µM (inactive) | > 100 µM (inactive) | > 100 µM (inactive) | > 100 µM (inactive) | > 100 µM (inactive) | > 100 µM (inactive) | > 100 µM (inactive) | > 100 µM (inactive) | > 100 µM (inactive) | > 100 µM (inactive) | 
2 | CCN(CC)Cc1cc(Nc2c3ccccc3nc3c2[nH]c2ccccc23)ccc1O | 1.61 µM (inactive) | 0.352 µM (active) | 1.46 µM (inactive) | 2.16 µM (inactive) | 1.5 µM (inactive) | 1.87 µM (inactive) | 1.7 µM (inactive) | 1.9 µM (inactive) | 1.85 µM (inactive) | 0.75 µM (active) |  | 1.96 µM (inactive) | 1.31 µM (inactive) | 1.42 µM (inactive) | 1.8 µM (inactive) | 2.11 µM (inactive) | 0.912 µM (active) | 3.61 µM (inactive) | 2.44 µM (inactive) | 0.853
3 | c1ccc(C2=NNC3c4ccccc4-c4ccccc4N3C2)cc1 (stereo unspecified) | 30 µM (inactive) | 32.7 µM (inactive) | 43 µM (inactive) | 2.08 µM (inactive) | 52.5 µM (inactive) | 23.9 µM (inactive) | 29.2 µM (inactive) | 30.3 µM (inactive) | 26.9 µM (inactive) | 21.9 µM (inactive) | 37.5 µM (inactive) | 19 µM (inactive) | 40 µM (inactive) | 44.9 µM (inactive) | 35.6 µM (inactive) | 46.6 µM (inactive) | 33.4 µM (inactive) | 33.7 µM (inactive) | 27.2 µM (inactive) | 48.4
4 | c1ccc([P+](Cc2csnn2)(c2ccccc2)c2ccccc2)cc1 | > 100 µM (inactive) | > 100 µM (inactive) | > 100 µM (inactive) | > 100 µM (inactive) | 80 µM (inactive) |  | > 100 µM (inactive) | > 100 µM (inactive) | > 100 µM (inactive) | > 100 µM (inactive) | > 100 µM (inactive) | > 100 µM (inactive) | 84.1 µM (inactive) | > 100 µM (inactive) | > 100 µM (inactive) | > 100 µM (inactive) | > 100 µM (inactive) | > 100 µM (inactive) | > 100 µM (inactive) | > 100
5 | NCCCCCC(CCN)SCC1OC(n2cnc3c(N)ncnc32)C(O)C1O (stereo unspecified) | > 1500 µM (inactive) | > 1500 µM (inactive) | 411 µM (inactive) | 519 µM (inactive) | > 618 µM (inactive) | 436 µM (inactive) |  | > 1280 µM (inactive) | 589 µM (inactive) | 379 µM (inactive) | > 1500 µM (inactive) | 292 µM (inactive) | 1060 µM (inactive) | 1460 µM (inactive) | 578 µM (inactive) | 927 µM (inactive) | > 1500 µM (inactive) |  | > 1260 µM (inactive) | > 946
6 | Cc1nc2c(n1C)C(=O)c1nc(CBr)[nH]c(=O)c1C2=O | > 100 µM (inactive) | > 100 µM (inactive) |  | 38.7 µM (inactive) | > 100 µM (inactive) | > 100 µM (inactive) | 35.9 µM (inactive) |  |  | > 100 µM (inactive) |  | > 100 µM (inactive) | > 100 µM (inactive) | > 100 µM (inactive) | > 100 µM (inactive) | 75.7 µM (inactive) | > 100 µM (inactive) | > 100 µM (inactive) |  | > 100
7 | CC(=O)Oc1ccccc1C(=O)C1c2cccc(O)c2C(=O)c2c(O)cccc21 | 1.8 µM (inactive) | 0.776 µM (active) | 1.95 µM (inactive) | 0.222 µM (active) | 1.18 µM (inactive) | 0.366 µM (active) | 1.84 µM (inactive) | 1.95 µM (inactive) | 1.63 µM (inactive) | 0.433 µM (active) | 0.593 µM (active) | 0.374 µM (active) | 0.423 µM (active) | 0.927 µM (active) | 1.64 µM (inactive) | 0.543 µM (active) | 0.445 µM (active) | 3.65 µM (inactive) | 1.62 µM (inactive) | 1.08
8 | COC(=O)C1=C(C)C(=O)[C@H]2C(C(=O)OC)CCCC[C@@H]12 (stereo partly specified) | > 100 µM (inactive) | > 100 µM (inactive) | > 100 µM (inactive) | 30.2 µM (inactive) | 32.3 µM (inactive) | 55.8 µM (inactive) | > 100 µM (inactive) | > 100 µM (inactive) | > 100 µM (inactive) | > 100 µM (inactive) |  | 66.2 µM (inactive) | > 100 µM (inactive) | > 100 µM (inactive) | > 100 µM (inactive) | > 100 µM (inactive) | > 100 µM (inactive) | > 100 µM (inactive) | 45.6 µM (inactive) | > 100
9 | COc1ccc(-c2cc(-c3ccccc3)c3c(n2)-c2ccccc2NC(=O)C3)cc1 | > 100 µM (inactive) | 49.4 µM (inactive) | 40.9 µM (inactive) | > 100 µM (inactive) | 27 µM (inactive) | 1.47 µM (inactive) | 71 µM (inactive) | 17.4 µM (inactive) | 58.2 µM (inactive) | 25.9 µM (inactive) | 30.1 µM (inactive) | > 100 µM (inactive) | 30.2 µM (inactive) | 23.7 µM (inactive) | > 100 µM (inactive) | 39.9 µM (inactive) | > 100 µM (inactive) | 41.8 µM (inactive) | > 100 µM (inactive) | 17.7
10 | Cc1[nH]c(=O)[nH]c(=O)c1/C=C/C(=O)NC(CO)CC(C)C (stereo unspecified) | > 375 µM (inactive) | 349 µM (inactive) | 146 µM (inactive) | > 361 µM (inactive) | 17.5 µM (inactive) | 179 µM (inactive) |  | 233 µM (inactive) | > 375 µM (inactive) | 163 µM (inactive) | 164 µM (inactive) | > 375 µM (inactive) | > 375 µM (inactive) | 231 µM (inactive) | 305 µM (inactive) | > 300 µM (inactive) | 351 µM (inactive) |  | > 375 µM (inactive) | > 360
11 | O=NN(CC1(O)OCC(O)C(O)C1O)C(Cc1c[nH]c2ccccc12)C(=O)O (stereo unspecified) | > 100 µM (inactive) | > 100 µM (inactive) |  | > 100 µM (inactive) | > 100 µM (inactive) | > 100 µM (inactive) | > 100 µM (inactive) | > 100 µM (inactive) |  | > 100 µM (inactive) | > 100 µM (inactive) | > 100 µM (inactive) | > 100 µM (inactive) |  | > 100 µM (inactive) | > 100 µM (inactive) | > 100 µM (inactive) | > 100 µM (inactive) | > 100 µM (inactive) | 
12 | c1ccc2c(NCCCCCCCCNc3cccc4ccccc34)cccc2c1 | 44.1 µM (inactive) | > 100 µM (inactive) | 19.7 µM (inactive) | 22.7 µM (inactive) | 18.2 µM (inactive) | 21.5 µM (inactive) | 19.9 µM (inactive) | 22 µM (inactive) | 85.1 µM (inactive) | 21.7 µM (inactive) | 34 µM (inactive) | > 10 µM (inactive) |  | 65 µM (inactive) | 19.5 µM (inactive) | > 100 µM (inactive) | 21.1 µM (inactive) | 24.3 µM (inactive) | 19.8 µM (inactive) | 25.8
13 | Cc1ccc(N2Cc3c(ccc4ccccc34)OP2(=S)N2CCCC2)cc1 (stereo unspecified) | > 56.5 µM (inactive) | > 100 µM (inactive) | > 100 µM (inactive) | > 100 µM (inactive) | > 100 µM (inactive) | > 89.9 µM (inactive) |  | > 100 µM (inactive) | > 100 µM (inactive) | > 100 µM (inactive) | > 40.1 µM (inactive) | > 22 µM (inactive) | > 100 µM (inactive) | > 100 µM (inactive) | > 100 µM (inactive) | > 100 µM (inactive) | > 100 µM (inactive) |  | > 100 µM (inactive) | > 100
14 | COc1ccccc1/C=C1\S/C(=N/Nc2nc(C)c(C(C)=O)s2)NC1=O | 22.8 µM (inactive) | 44.8 µM (inactive) | 57.3 µM (inactive) | 26.1 µM (inactive) | 19.6 µM (inactive) | 34 µM (inactive) | 74 µM (inactive) |  | 5.3 µM (inactive) | 55.7 µM (inactive) | 26.9 µM (inactive) | 30.4 µM (inactive) | 69 µM (inactive) | 22.8 µM (inactive) | 40.6 µM (inactive) | 74.1 µM (inactive) | 46.1 µM (inactive) | 40.6 µM (inactive) | 49.8 µM (inactive) | 
15 | COc1ccccc1NC(=O)C(=O)C(C(=O)c1ccccc1F)C1OC(=O)c2ccccc21 (stereo unspecified) | 59.8 µM (inactive) | 45.3 µM (inactive) | 34.5 µM (inactive) | 20.3 µM (inactive) | 42.6 µM (inactive) | 32.7 µM (inactive) | 27.5 µM (inactive) |  | 15.6 µM (inactive) | 25.8 µM (inactive) |  | 20.2 µM (inactive) | 42.9 µM (inactive) | 29.9 µM (inactive) | 46.3 µM (inactive) | 35.6 µM (inactive) | 32.9 µM (inactive) | 50 µM (inactive) | 54.8 µM (inactive) | 25
